Laboratory results published in patent US20250171438A1 (Agios Pharmaceuticals, Inc., priority 2022, published 2025).

Target: T1, human PAH with the R408W mutation (Homo sapiens, UniProt P00439, R408W)
T1 construct: expressed in transfected cells
T1 sequence (P00439 1-452 R408W): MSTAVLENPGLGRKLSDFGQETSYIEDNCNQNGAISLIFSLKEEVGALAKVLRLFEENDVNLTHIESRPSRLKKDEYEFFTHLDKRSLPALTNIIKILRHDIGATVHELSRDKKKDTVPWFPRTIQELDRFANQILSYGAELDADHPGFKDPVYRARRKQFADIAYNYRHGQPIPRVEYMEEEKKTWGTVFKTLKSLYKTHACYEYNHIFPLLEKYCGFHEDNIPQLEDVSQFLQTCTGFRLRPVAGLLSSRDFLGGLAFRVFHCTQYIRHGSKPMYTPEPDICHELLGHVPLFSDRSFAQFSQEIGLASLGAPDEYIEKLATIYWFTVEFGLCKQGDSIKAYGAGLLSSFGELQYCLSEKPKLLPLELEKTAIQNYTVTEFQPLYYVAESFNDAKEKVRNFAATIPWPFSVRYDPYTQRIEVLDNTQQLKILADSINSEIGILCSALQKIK
Experiment: Cell Based Phenylalanine Flux Assay
Conditions: A375 cells expressing human R408W PAH; 24 hrs compound incubation; 13C-Tyrosine by LC-MS; average where tested multiple times; read-out: AC50

First: CCc1ccc2c(C(=O)N3CCc4[nH]cnc4[C@H]3c3nc4ccccc4s3)cnn2c1 [Example 1243]
Second: COCCc1ccc2c(C(=O)N3CCc4[nH]cnc4[C@@H]3c3nc4ccccc4s3)cnn2c1 [Example 1452, (R)-(4-(benzo[d]thiazol-2-yl)-6,7-dihydro-1H-imidazo[4,5-c]pyridin-5(4H)-yl)(6-(2-methoxyethyl)pyrazolo[1,5-a]pyridin-3-yl)methanone]
The AC50 of the first is lower: 1000 to 5000 nM for the first, > 5000 nM for the second.

Compared with `Cc1nc(Br)c(C(=O)N2CCc3[nH]cnc3[C@@H]2c2nc3c(F)cccc3s2)o1` [Example 1759, (R)-(4-bromo-2-methyloxazol-5-yl)(4-(4-fluorobenzo[d]thiazol-2-yl)-6,7-dihydro-1H-imidazo[4,5-c]pyridin-5(4H)-yl)methanone], `COCc1nc(Br)c(C(=O)N2CCc3[nH]cnc3[C@H]2c2nc3c(F)cccc3s2)o1` [Example 1776] is lower in AC50: 1000 to 5000 nM for the first, < 500 nM for the second.

First: O=C(c1nnc(-c2cc(C(F)(F)F)ccn2)o1)N1CCc2[nH]cnc2[C@H]1c1nc2ccccc2s1 [Example 1889, [(4S)-4-(1,3-benzothiazol-2-yl)-1,4,6,7-tetrahydroimidazo[4,5-c]pyridin-5-yl]-[5-[4-(trifluoromethyl)-2-pyridyl]-1,3,4-oxadiazol-2-yl]methanone]
Second: O=C(c1nnc(-c2cnn(CC(F)F)c2)o1)N1CCc2[nH]cnc2[C@@H]1c1nc2ccccc2s1 [Example 1872, (R)-(4-(benzo[d]thiazol-2-yl)-6,7-dihydro-1H-imidazo[4,5-c]pyridin-5(4H)-yl)(5-(1-(2,2-difluoroethyl)-1H-pyrazol-4-yl)-1,3,4-oxadiazol-2-yl)methanone]
The AC50 of the first is lower: < 500 nM for the first, 1000 to 5000 nM for the second.

`O=C(c1cnco1)N1CCc2[nH]cnc2[C@@H]1c1nc2ccccc2s1` [Example 1098, (R)-(4-(benzo[d]thiazol-2-yl)-6,7-dihydro-1H-imidazo[4,5-c]pyridin-5(4H)-yl)(oxazol-5-yl)methanone] and `N#Cc1ncoc1C(=O)N1CCc2[nH]cnc2[C@@H]1c1nc2ccccc2s1` [Example 1584, (R)-5-(4-(benzo[d]thiazol-2-yl)-4,5,6,7-tetrahydro-1H-imidazo[4,5-c]pyridine-5-carbonyl)oxazole-4-carbonitrile] cannot be ordered by AC50: > 5000 nM for the first, > 5000 nM for the second.

First: Cc1nc(C2(O)CCC2)oc1C(=O)N1CCc2[nH]cnc2[C@@H]1c1nc2c(F)cccc2s1 [Example 1914, (R)-(4-(4-fluorobenzo[d]thiazol-2-yl)-6,7-dihydro-1H-imidazo[4,5-c]pyridin-5(4H)-yl)(2-(1-hydroxycyclobutyl)-4-methyloxazol-5-yl)methanone]
Second: O=C(c1oc(C2CC2)nc1C(F)(F)F)N1CCc2[nH]cnc2[C@H]1c1nc2c(F)cccc2s1 [Example 2183, (S)-(2-cyclopropyl-4-(trifluoromethyl)oxazol-5-yl)(4-(4-fluorobenzo[d]thiazol-2-yl)-1,4,6,7-tetrahydro-5H-imidazo[4,5-c]pyridin-5-yl)methanone]
The AC50 of the first is higher: 1000 to 5000 nM for the first, < 500 nM for the second.

`O=C(c1ocnc1C1CC1)N1CCc2[nH]cnc2[C@H]1c1nc2ccccc2s1` [Example 1327] and `Cc1nc(C2CC2)oc1C(=O)N1CCc2[nH]cnc2[C@H]1c1nc2ccccc2s1` [Example 1395] cannot be ordered by AC50: < 500 nM for the first, < 500 nM for the second.

First: O=C(CCc1nccs1)N1CCc2[nH]cnc2[C@H]1c1nc2ccc(Cl)cc2[nH]1 [Example 910, (S)-1-(4-(6-chloro-1H-benzo[d]imidazol-2-yl)-6,7-dihydro-1H-imidazo[4,5-c]pyridin-5(4H)-yl)-3-(thiazol-2-yl)propan-1-one]
Second: O=C(Cc1nc2ccccc2s1)N1CCc2[nH]cnc2[C@H]1c1nc2ccccc2[nH]1 [Example 905]
The AC50 of the first is lower: 500 to 1000 nM for the first, 1000 to 5000 nM for the second.

`O=C(c1oc(-c2ccccn2)nc1C1CC1)N1CCc2[nH]cnc2[C@H]1c1nc2cccc(F)c2s1` [Example 1558] and `O=C(c1oc(-c2ccccn2)nc1C1CC1)N1CCc2[nH]cnc2[C@H]1c1nc2ccccc2s1` [Example 1515] cannot be ordered by AC50: < 500 nM for the first, < 500 nM for the second.

Compared with `Cc1c(C(=O)N2CCc3[nH]cnc3[C@@H]2c2nc3c(F)cccc3s2)cnn1-c1ccccn1` [Example 1934, (R)-(4-(4-fluorobenzo[d]thiazol-2-yl)-6,7-dihydro-1H-imidazo[4,5-c]pyridin-5(4H)-yl)(5-methyl-1-(pyridin-2-yl)-1H-pyrazol-4-yl)methanone], `CC(C)(F)c1ccc2c(C(=O)N3CCc4[nH]cnc4[C@@H]3c3nc4c(F)cccc4s3)cnn2c1` [Example 1490, (R)-(4-(4-fluorobenzo[d]thiazol-2-yl)-6,7-dihydro-1H-imidazo[4,5-c]pyridin-5(4H)-yl)(6-(2-fluoropropan-2-yl)pyrazolo[1,5-a]pyridin-3-yl)methanone] is lower in AC50: > 5000 nM for the first, 1000 to 5000 nM for the second.

First: Cc1cccc2sc([C@@H]3c4nc[nH]c4CCN3C(=O)c3ccnn3C)nc12 [Example 2021]
Second: O=C(c1ccnn1C(F)F)N1CCc2[nH]cnc2[C@@H]1c1nc2ccccc2s1 [Example 1818, (R)-(4-(benzo[d]thiazol-2-yl)-6,7-dihydro-1H-imidazo[4,5-c]pyridin-5(4H)-yl)(1-(difluoromethyl)-1H-pyrazol-5-yl)methanone]
The AC50 of the first is lower: 500 to 1000 nM for the first, 1000 to 5000 nM for the second.

First: O=C(CCC1CC1)N1CCc2nc[nH]c2[C@H]1c1nc2c(F)cccc2s1 [Example 1113, (S)-3-cyclopropyl-1-(4-(4-fluorobenzo[d]thiazol-2-yl)-6,7-dihydro-3H-imidazo[4,5-c]pyridin-5(4H)-yl)propan-1-one]
Second: O=C(CCC1CC1)N1CCc2[nH]cnc2[C@H]1c1nc2cccc(F)c2s1 [Example 1133, (S)-3-cyclopropyl-1-(4-(7-fluorobenzo[d]thiazol-2-yl)-6,7-dihydro-1H-imidazo[4,5-c]pyridin-5(4H)-yl)propan-1-one]
The AC50 of the first is higher: 1000 to 5000 nM for the first, 500 to 1000 nM for the second.

`Cn1ncc(C(=O)N2CCc3[nH]cnc3[C@H]2c2nc3c(F)cccc3s2)c1C(F)F` [Example 1743, (S)-(5-(difluoromethyl)-1-methyl-1H-pyrazol-4-yl)(4-(4-fluorobenzo[d]thiazol-2-yl)-6,7-dihydro-1H-imidazo[4,5-c]pyridin-5(4H)-yl)methanone] and `O=C(c1cn(CC(F)(F)F)nc1Cl)N1CCc2[nH]cnc2[C@H]1c1nc2c(F)cccc2s1` [Example 1764, (S)-(3-chloro-1-(2,2,2-trifluoroethyl)-1H-pyrazol-4-yl)(4-(4-fluorobenzo[d]thiazol-2-yl)-6,7-dihydro-1H-imidazo[4,5-c]pyridin-5(4H)-yl)methanone] fall in the same range of AC50: 500 to 1000 nM for the first, 500 to 1000 nM for the second.

First: O=C(c1scnc1Cl)N1CCc2[nH]cnc2[C@H]1c1nc2c(F)cccc2s1 [Example 1640]
Second: O=C(c1scnc1Cl)N1CCc2[nH]cnc2[C@@H]1c1nc2ccc(F)cc2s1 [Example 1141]
The AC50 of the first is lower: 500 to 1000 nM for the first, > 5000 nM for the second.

`Cn1cc(-c2ncc(C(=O)N3CCc4[nH]cnc4[C@@H]3c3nc4c(F)cccc4s3)o2)cn1` [Example 1345, (R)-(4-(4-fluorobenzo[d]thiazol-2-yl)-6,7-dihydro-1H-imidazo[4,5-c]pyridin-5(4H)-yl)(2-(1-methyl-1H-pyrazol-4-yl)oxazol-5-yl)methanone] and `O=C([C@@H]1CC1(F)F)N1CCc2[nH]cnc2[C@@H]1c1nc2c(F)cccc2s1` [Example 1646, ((S)-2,2-difluorocyclopropyl)((R)-4-(4-fluorobenzo[d]thiazol-2-yl)-6,7-dihydro-1H-imidazo[4,5-c]pyridin-5(4H)-yl)methanone] fall in the same range of AC50: 1000 to 5000 nM for the first, 1000 to 5000 nM for the second.

First: CC1(C)CC=C(c2ncc(C(=O)N3CCc4[nH]cnc4[C@H]3c3nc4ccccc4s3)s2)CC1 [Example 1351]
Second: O=C(c1ncn2ccccc12)N1CCc2[nH]cnc2[C@@H]1c1nc2ccccc2s1 [Example 1028, (R)-(4-(benzo[d]thiazol-2-yl)-6,7-dihydro-1H-imidazo[4,5-c]pyridin-5(4H)-yl)(imidazo[1,5-a]pyridin-1-yl)methanone]
The AC50 of the first is lower: 500 to 1000 nM for the first, > 5000 nM for the second.

First: N#Cc1nn2cc(Br)ccc2c1C(=O)N1CCc2[nH]cnc2[C@H]1c1nc2ccccc2s1 [Example 1779, (S)-3-(4-(benzo[d]thiazol-2-yl)-4,5,6,7-tetrahydro-1H-imidazo[4,5-c]pyridine-5-carbonyl)-6-bromopyrazolo[1,5-a]pyridine-2-carbonitrile]
Second: O=C(c1cncs1)N1CCc2[nH]cnc2[C@@H]1c1nc2cc(F)ccc2s1 [Example 1194, (R)-(4-(5-fluorobenzo[d]thiazol-2-yl)-6,7-dihydro-1H-imidazo[4,5-c]pyridin-5(4H)-yl)(thiazol-5-yl)methanone]
The AC50 of the first is lower: < 500 nM for the first, > 5000 nM for the second.

Molecule `O=C(c1nncs1)N1CCc2[nH]cnc2[C@@H]1c1nc2cc(F)ccc2s1` [Example 1300, (R)-(4-(5-fluorobenzo[d]thiazol-2-yl)-6,7-dihydro-1H-imidazo[4,5-c]pyridin-5(4H)-yl)(1,3,4-thiadiazol-2-yl)methanone] has an AC50 of 1000 to 5000 nM.

Same assay, conditions: A375 cells expressing human R408W PAH; 24 hrs with compound; 13C-Tyrosine by LC-MS; average where tested multiple times; read-out: AC50

`CN1CCN(c2nnc(C(=O)N3CCc4[nH]cnc4C3c3nc4ccccc4s3)o2)CC1` (stereo not drawn) and `Cc1nc(CCC2CC2)oc1C(=O)N1CCCc2[nH]cnc2[C@H]1c1nc2ccccc2s1` (single isomer, unassigned) fall in the same range of AC50: 1000 to 5000 nM for the first, 1000 to 5000 nM for the second.

`O=C(c1nccs1)N1CCc2[nH]cnc2[C@H]1c1nc2ccc(F)cc2[nH]1` (single isomer, unassigned) and `O=C(CC1CC1)N1CCc2[nH]cnc2C1c1nc2c(F)cccc2s1` (stereo not drawn) fall in the same range of AC50: 1000 to 5000 nM for the first, 1000 to 5000 nM for the second.

`COc1ccc2c(C(=O)N3CCc4[nH]cnc4C3c3nc4ccccc4s3)cnn2c1` (stereo not drawn) and `CC1CN(C(=O)c2nnc(C(C)(C)O)o2)C(c2nc3ccccc3s2)c2nc[nH]c21` (stereo not drawn) fall in the same range of AC50: 1000 to 5000 nM for the first, 1000 to 5000 nM for the second.
